Data: patent US11774442B2, “Molecule sensor systems” (priority 2016, dated 2023)

Experiments:
PcaV = PcaV synthetic promoter/operator GFP reporter in E. coli; type: cell-based, Streptomyces coelicolor; conditions: E. coli harboring PcaV plasmid, grown in supplemented medium
Description: As an example, Streptomyces coelicolor harbors an aTF, PcaV (SC06704), a member of the MarR family, which relieves repression on its operator in the presence of 3,4-dihydroxybenzoic acid. When the intergenic region between PcaV and Pcal was cloned into position to promote the expression of GFP on a plasmid which can be maintained in E. coli, no GFP expression was observed even though no known protein was present which could bind the operator site. […] Upon the introduction of the PcaV protein under a constitutive promoter, the GFP expression was suppressed. […] See FIG. 1, FIG. 2, FIG. 3, FIG. 21.

E coli = experiment: Toxicity in FapR chassis dose response (OD600 and fluorescence channels); type: cell-based; conditions: highest concentration
Description: (§1) Staphylococcus aureus FapR responds to intracellular levels of malonyl-CoA. Cerulenin is an inhibitor of fatty acid biosynthesis and is known to increase the intracellular pool of malonyl-CoA at subtoxic concentrations.

FapR = FapR GFP reporter in E coli; type: cell-based, Staphylococcus aureus; conditions: increasing concentrations
Description: as §1

TtgR = molecular target: T1, TtgR (Pseudomonas putida, UniProt Q88N29); experiment: TtgR-GFP sensor-reporter system in E. coli, response to naringenin; type: cell-based; conditions: TtgR-binding synthetic operator promoter
T1 construct: Wild type of TtgR; expressed in transfected cells; host or cells: E. coli
T1 sequence (Q88N29 whole entry): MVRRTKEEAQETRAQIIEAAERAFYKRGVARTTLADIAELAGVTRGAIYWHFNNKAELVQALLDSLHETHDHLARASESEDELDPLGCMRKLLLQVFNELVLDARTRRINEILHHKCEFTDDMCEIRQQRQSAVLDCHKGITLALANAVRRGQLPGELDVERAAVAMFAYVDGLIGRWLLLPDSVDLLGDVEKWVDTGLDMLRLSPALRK
Description: TtgR regulates the TtgABC efflux pump in Pseudomonas putida, and responds to antibiotics such as chloramphenicol (Teran, et al) as well as the flavanones such as naringenin (Raman, et al).
See FIG. 8, FIG. 9, FIG. 10, FIG. 11, FIG. 13.

FadR = type: cell-based, Vibrio cholerae; conditions: E coli; increased levels

For `O=C(O)c1ccc(O)c(O)c1` [3,4-dihydroxybenzoic acid], the GFP expression (PcaV) was “expression of GFP was observed”.
In the case of `C/C=C/C/C=C/CCC(=O)[C@H]1O[C@H]1C(N)=O` [cerulenin], the toxicity (E coli) was “toxicity at highest concentration” and the GFP reporter expression (FapR) was “increased expression of a GFP reporter”.
For `O=C1C[C@@H](c2ccc(O)cc2)Oc2cc(O)cc(O)c21` [naringenin], the GFP expression (TtgR) was “drive GFP expression”.
With `CCCCCCCC/C=C\CCCCCCCC(=O)O` [oleic acid] the GFP reporter expression (FadR) was “driving expression of a GFP reporter”.
